Laboratory results as given in EPA's ToxValDB 9.5.

System: Rattus norvegicus
Test: FEL; higher = less toxic
Conditions: duration: 14 days, oral, gavage, Crl:CD(SD)

Measured: FEL

O=C(O)C(F)(F)C(F)(F)C(F)(F)C(F)(F)C(F)(F)C(F)(F)C(F)(F)C(F)(F)C(F)(F)C(F)(F)C(F)(F)F [Perfluorododecanoic acid]
2.5 mg/kg-day: developmental, F, generation: F1, F1: Whole Body: Body Weight, Fetal, PND0 + F1: Whole Body: Body Weight, Fetal, PND1 + F1: Whole Body: Body Weight, Fetal, PND4 | developmental, M, generation: F1, F1: Whole Body: Body Weight, Fetal, PND1 + F1: Whole Body: Body Weight, Fetal, PND4 | reproduction developmental, F, generation: P0, P0: Adrenal: Adrenal Gland Weight, Absolute + P0: Adrenal: Adrenal Gland Weight, Relative + P0: Blood: Albumin/Globulin (A/G) Ratio + P0: … | reproduction developmental, M/F, generation: F1, F1: Uterus: Fetuses, Dead + F1: Whole Body: Live Birth Index + F1: Whole Body: Male Pups per Pups Sexed + F1: Whole Body: Number of litters
